Source: patent US20220305012A1, “L[…] TREATING SLEEP ISSUES” (EISAI R&D MANAGEMENT CO., LTD., priority 2019, published 2022)

Columns and labels:
[1] = test system: Subjects Having Insomnia Disorder; assay: Example 1: subjective total sleep time (sTST), Sleep Diary; assay type: in vivo, human
Description: As used herein, the term “subjective total sleep time”, abbreviated as “sTST”, means the derived minutes of sleep from sleep onset until the time the subject stopped trying to sleep for the night. In some embodiments, sTST is derived from data entered in a subject's Sleep Diary.
In some embodiments, sleep diaries were used to assess sleep parameters reported by subjects (i.e., subjective assessments) including subjective sleep onset latency (sSOL), subjective sleep efficiency (sSE), subjective WASO (sWASO), and subjective total sleep time (sTST). Subjects were instructed to complete the Sleep Diary developed based on the consensus Sleep Diary as described in Carney et al., “The consensus sleep diary: standardizing prospective sleep self-monitoring,” Sleep 2012; 35(2):287-302. In some embodiments, the Sleep Diary was used to assess the subject's global perception of quality of sleep on the previous night with the following question: “How would you rate the quality of your sleep last night?” Subjects rated the quality of their sleep on a scale from 1 to 9, with 1 being extremely poor and 9 being extremely good. In some embodiments, the Sleep Diary was used to assess subjective ratings of morning sleepiness with the following question: “How alert/sleepy do you feel this morning?” Subjects rated their sleepiness/alertness level on a Likert scale from 1 to 9, with 1 being extremely sleepy and 9 being extremely alert.
sTST—subjective total sleep time: derived minutes of sleep from sleep onset until the time the subject stopped trying to sleep for the night.
Subjects were randomized in a double-blind manner and received either placebo, 5 mg of lemborexant, or 10 mg of lemborexant (approximately 1:1:1 randomization). All subjects underwent routine safety monitoring through the study, including assessments of treatment-emergent adverse events, 12-lead electrocardiograms, vital signs, weight, and clinical hematology and blood chemistry labs. Suicidality was assessed using the eC-SSRS.
Treatment period 1 began with the first dose of randomized study medication (placebo, 5 mg of lemborexant, or 10 mg of lemborexant). Subjects completed sleep diaries daily in the morning, within one hour of waketime. The subjects were assessed by a clinician one month, two months, three months, and six months after initiation of Treatment period 1. The following assessments were conducted:
In addition to the aforementioned study endpoints, the study included several additional secondary endpoints: • Mean change from study baseline of subjective sleep onset latency, subjective sleep efficiency, subjective wake after sleep onset, and subjective total sleep time at the beginning of treatment (mean of the 7 nights after the first dose in Period 1), at Month 1 and at Month 3. • Mean change from study baseline of subjective total sleep time at Month 6. • Change from study baseline in daytime functioning, assessed as the total score from the 4 items on daytime functioning, on the Insomnia Severity Index, at Months 1, 3, and 6.

[2] = Example 2: plasma concentrations of lemborexant and metabolites; assay type: in vivo, human
Method: Within 5 minutes of the subject's mean habitual bedtime, study drug was administered and an overnight polysomnogram recording was initiated. At completion of the recording the following morning (Day 2), postural stability and cognitive performance were assessed. On the Day 2 evening, subjects returned to the clinic and a blood sample was collected before administering study drug, and then study drug was administered within 5 minutes of the subject's mean habitual bedtime. Again, a polysomnogram recording was initiated. The next morning (Day 3), postural stability and cognitive performance were assessed. A blood sample was also collected.
On the evening of Day 30, subjects returned to the clinic. A pre-dose blood sample was collected and study drug was again administered within 5 minutes of the subject's mean habitual bedtime. A polysomnogram recording was initiated. The following morning (Day 31), postural stability and cognitive performance were assessed and a blood sample was obtained. The ISI, FSS, EQ-5D-3L and PGI-Insomnia were administered. Blood and urine samples were collected for routine safety assessment. An electrocardiogram was performed, and vital signs and weight were assessed. The eC-SSRS was then administered to the subject. At 1.5 hours after waketime, subjects rated their morning sleepiness level.

[3] = Lemborexant 5 mg dose, Day 2 Post-Dose
[4] = Lemborexant 5 mg dose, Day 2 Pre-Dose
[5] = Lemborexant 5 mg dose, Day 29 Post-Dose
[6] = Lemborexant 5 mg dose, Day 29 Pre-Dose
[7] = Lemborexant 10 mg dose, Day 2 Post-Dose
[8] = Lemborexant 10 mg dose, Day 2 Pre-Dose
[9] = Lemborexant 10 mg dose, Day 29 Post-Dose
[10] = Lemborexant 10 mg dose, Day 29 Pre-Dose

Cc1ncc(OC[C@@]2(c3cccc(F)c3)C[C@H]2C(=O)Nc2ccc(F)cn2)c(C)n1 [Lemborexant, (1R,2S)-2-(((2,4-dimethylpyrimidin-5-yl)oxy)methyl)-2-(3-fluorophenyl)-N-(5-fluoropyridin-2-yl)cyclopropanecarboxamide]
subjective total sleep time compared with placebo ([1]; 5 mg and 10 mg, at the equivalent timepoint (Table 5)): greater increase in subjective total sleep time than subjects treated with placebo
sTST, Mean ([1]; 5 mg, First 7 Nights): 350.80 min
sTST, Median ([1]; 5 mg, First 7 Nights): 366.0 min
sTST, Mean ([1]; 5 mg, Month 1): 357.14 min
sTST, Median ([1]; 5 mg, Month 1): 374.64 min
sTST, Mean ([1]; 5 mg, Month 3): 386.42 min
sTST, Median ([1]; 5 mg, Month 3): 397.86 min
sTST, Mean ([1]; 5 mg, Month 6): 392.08 min
sTST, Median ([1]; 5 mg, Month 6): 403.43 min
sTST, Mean ([1]; 5 mg, Study Baseline): 315.52 min
sTST, Median ([1]; 5 mg, Study Baseline): 332.14 min
sTST Change from Study Baseline, Mean ([1]; 5 mg, after 1 Month): 39.32 min
sTST Change from Study Baseline, Median ([1]; 5 mg, after 1 Month): 36.33 min
sTST Change from Study Baseline, Mean ([1]; 5 mg, after 3 Months): 65.82 min
sTST Change from Study Baseline, Median ([1]; 5 mg, after 3 Months): 60.71 min
sTST Change from Study Baseline, Mean ([1]; 5 mg, after 6 Months): 76.21 min
sTST Change from Study Baseline, Median ([1]; 5 mg, after 6 Months): 70.71 min
sTST Change from Study Baseline, Mean ([1]; 5 mg, after 7 Nights): 34.29 min
sTST Change from Study Baseline, Median ([1]; 5 mg, after 7 Nights): 30.71 min
sTST LSM treatment difference: Lemborexant/Placebo ([1]; 5 mg, change from Study Baseline after 1 Month): 11.760 min
sTST LSM treatment difference: Lemborexant/Placebo ([1]; 5 mg, change from Study Baseline after 3 Months): 17.374 min
sTST LSM treatment difference: Lemborexant/Placebo ([1]; 5 mg, change from Study Baseline after 6 Months): 18.555 min
sTST LSM treatment difference: Lemborexant/Placebo ([1]; 5 mg, change from Study Baseline after 7 Nights): 22.034 min
sTST, Mean ([1]; 10 mg, First 7 Nights): 351.43 min
sTST, Median ([1]; 10 mg, First 7 Nights): 365.11 min
sTST, Mean ([1]; 10 mg, Month 1): 355.96 min
sTST, Median ([1]; 10 mg, Month 1): 369.23 min
sTST, Mean ([1]; 10 mg, Month 3): 374.99 min
sTST, Median ([1]; 10 mg, Month 3): 391.43 min
sTST, Mean ([1]; 10 mg, Month 6): 379.25 min
sTST, Median ([1]; 10 mg, Month 6): 398.57 min
sTST, Mean ([1]; 10 mg, Study Baseline): 306.89 min
sTST, Median ([1]; 10 mg, Study Baseline): 315.33 min
sTST Change from Study Baseline, Mean ([1]; 10 mg, after 1 Month): 53.22 min
sTST Change from Study Baseline, Median ([1]; 10 mg, after 1 Month): 47.77 min
sTST Change from Study Baseline, Mean ([1]; 10 mg, after 3 Months): 70.95 min
sTST Change from Study Baseline, Median ([1]; 10 mg, after 3 Months): 64.52 min
sTST Change from Study Baseline, Mean ([1]; 10 mg, after 6 Months): 78.32 min
sTST Change from Study Baseline, Median ([1]; 10 mg, after 6 Months): 72.93 min
sTST Change from Study Baseline, Mean ([1]; 10 mg, after 7 Nights): 46.01 min
sTST Change from Study Baseline, Median ([1]; 10 mg, after 7 Nights): 42.31 min
sTST LSM treatment difference: Lemborexant/Placebo ([1]; 10 mg, change from Study Baseline after 1 Month): 22.131 min
sTST LSM treatment difference: Lemborexant/Placebo ([1]; 10 mg, change from Study Baseline after 3 Months): 21.686 min
sTST LSM treatment difference: Lemborexant/Placebo ([1]; 10 mg, change from Study Baseline after 6 Months): 22.686 min
sTST LSM treatment difference: Lemborexant/Placebo ([1]; 10 mg, change from Study Baseline after 7 Nights): 31.796 min
Plasma Concentrations, BLQ (<0.0500 ng/mL), n (%) [2, 3]: 6 (2.3) n (%)
Plasma Concentrations, Mean (SD) [2, 3]: 5.3 (2.55) ng/mL
Plasma Concentrations, Median [2, 3]: 5.0 ng/mL
Plasma Concentrations, BLQ (<0.0500 ng/mL), n (%) [2, 4]: 10 (3.9) n (%)
Plasma Concentrations, Mean (SD) [2, 4]: 2.1 (1.48) ng/mL
Plasma Concentrations, Median [2, 4]: 1.8 ng/mL
Plasma Concentrations, BLQ (<0.0500 ng/mL), n (%) [2, 5]: 6 (2.4) n (%)
Plasma Concentrations, Mean (SD) [2, 5]: 10.7 (6.66) ng/mL
Plasma Concentrations, Median [2, 5]: 9.1 ng/mL
Plasma Concentrations, BLQ (<0.0500 ng/mL), n (%) [2, 6]: 8 (3.1) n (%)
Plasma Concentrations, Mean (SD) [2, 6]: 7.3 (5.60) ng/mL
Plasma Concentrations, Median [2, 6]: 6.1 ng/mL
Plasma Concentrations, BLQ (<0.0500 ng/mL), n (%) [2, 7]: 5 n (%)
Plasma Concentrations, Mean (SD) [2, 7]: 11.5 ng/mL
Plasma Concentrations, Median [2, 7]: 10.4 ng/mL
Plasma Concentrations, BLQ (<0.0500 ng/mL), n (%) [2, 8]: 15 n (%)
Plasma Concentrations, Mean (SD) [2, 8]: 4.4 ng/mL
Plasma Concentrations, Median [2, 8]: 3.7 ng/mL
Plasma Concentrations, BLQ (<0.0500 ng/mL), n (%) [2, 9]: 6 n (%)
Plasma Concentrations, Mean (SD) [2, 9]: 21.1 ng/mL
Plasma Concentrations, Median [2, 9]: 19.6 ng/mL
Plasma Concentrations, BLQ (<0.0500 ng/mL), n (%) [2, 10]: 6 n (%)
Plasma Concentrations, Mean (SD) [2, 10]: 15.1 ng/mL
Plasma Concentrations, Median [2, 10]: 13.7 ng/mL
